Experimental data as given in PMC12595434, “Development of retinoid nuclear receptor pathway antagonists through targeting aldehyde dehydrogenase 1A3” (iScience, 2025).

Assays:
AR = AR (Homo sapiens, UniProt P10275); test: Off-target profiling panel; type: binding; conditions: read-out: Inhibition by MBE1 at 10 μM (%)
Alpha1A = Alpha1A (Homo sapiens, UniProt P35348); test: Off-target profiling panel; type: binding; conditions: read-out: Inhibition by MBE1 at 10 μM (%)
COX1 = COX1 (Homo sapiens, UniProt P23219); test: Off-target profiling panel; type: biochemical; conditions: read-out: Inhibition by MBE1 at 10 μM (%)
Sequence of COX1 (P23219 24-599): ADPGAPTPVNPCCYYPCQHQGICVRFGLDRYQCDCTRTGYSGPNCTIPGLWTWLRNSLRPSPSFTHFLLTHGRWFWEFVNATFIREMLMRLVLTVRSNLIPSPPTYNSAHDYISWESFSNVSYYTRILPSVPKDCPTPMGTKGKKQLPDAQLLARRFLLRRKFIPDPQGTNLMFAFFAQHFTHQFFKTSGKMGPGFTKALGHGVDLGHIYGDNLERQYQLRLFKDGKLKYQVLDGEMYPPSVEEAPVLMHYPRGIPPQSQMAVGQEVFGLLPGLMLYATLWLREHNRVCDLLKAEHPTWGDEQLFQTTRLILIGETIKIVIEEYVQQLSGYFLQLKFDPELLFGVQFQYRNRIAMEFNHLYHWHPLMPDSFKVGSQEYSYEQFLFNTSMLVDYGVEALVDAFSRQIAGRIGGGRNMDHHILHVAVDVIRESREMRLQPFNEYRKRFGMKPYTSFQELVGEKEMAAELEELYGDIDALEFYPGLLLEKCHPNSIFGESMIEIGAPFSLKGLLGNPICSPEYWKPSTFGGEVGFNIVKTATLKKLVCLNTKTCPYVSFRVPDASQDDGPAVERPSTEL

MAO-A = MAO-A (Homo sapiens, UniProt P21397); test: Off-target profiling panel; type: biochemical; conditions: read-out: Inhibition by MBE1 at 10 μM (%)
Sequence of MAO-A (P21397 whole entry): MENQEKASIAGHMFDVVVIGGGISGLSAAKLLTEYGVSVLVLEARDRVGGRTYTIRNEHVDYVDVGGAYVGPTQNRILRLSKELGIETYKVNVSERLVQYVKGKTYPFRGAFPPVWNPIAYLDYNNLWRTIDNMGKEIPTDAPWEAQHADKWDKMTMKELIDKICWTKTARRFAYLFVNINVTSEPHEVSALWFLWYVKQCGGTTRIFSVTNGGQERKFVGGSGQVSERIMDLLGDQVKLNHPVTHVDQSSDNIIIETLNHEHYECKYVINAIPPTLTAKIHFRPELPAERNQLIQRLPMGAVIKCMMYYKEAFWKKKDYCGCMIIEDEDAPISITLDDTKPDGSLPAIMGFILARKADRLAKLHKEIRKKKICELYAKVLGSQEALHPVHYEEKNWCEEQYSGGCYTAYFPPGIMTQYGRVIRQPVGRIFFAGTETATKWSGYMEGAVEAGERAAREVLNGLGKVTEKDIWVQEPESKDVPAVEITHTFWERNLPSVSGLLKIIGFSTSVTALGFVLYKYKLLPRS

ALDH1A3 = molecular target: T1, ALDH1A3 (Homo sapiens, UniProt P47895); test: Cellular thermal shift assay (CETSA) in A375 cells; type: cell-based; set-up: endogenous in cells; host or cells: A375 cells; conditions: 100 nM, 1h at 37°C
T1 sequence (P47895 1-512): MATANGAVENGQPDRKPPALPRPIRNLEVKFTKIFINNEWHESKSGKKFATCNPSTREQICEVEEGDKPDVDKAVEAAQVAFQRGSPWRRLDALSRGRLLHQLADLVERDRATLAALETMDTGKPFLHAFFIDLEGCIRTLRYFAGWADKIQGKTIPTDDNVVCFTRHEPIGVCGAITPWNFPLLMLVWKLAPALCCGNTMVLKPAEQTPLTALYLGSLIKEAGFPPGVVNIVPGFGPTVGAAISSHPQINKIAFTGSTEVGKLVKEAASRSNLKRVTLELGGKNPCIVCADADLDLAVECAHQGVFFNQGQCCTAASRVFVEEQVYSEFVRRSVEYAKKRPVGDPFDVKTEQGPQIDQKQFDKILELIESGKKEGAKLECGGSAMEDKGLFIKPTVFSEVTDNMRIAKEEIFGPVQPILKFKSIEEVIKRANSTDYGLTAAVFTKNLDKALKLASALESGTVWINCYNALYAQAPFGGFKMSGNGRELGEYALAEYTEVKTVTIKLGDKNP
Procedure: CETSA was performed according to protocols described before.[85] Briefly, 6 × 10cm dishes of A375 cells were collected and treated with 100 nM MBE1 or 0.1% DMSO for 1h at 37°C. Afterward, cells were pelleted through centrifugation at 300g for 5 min. Cells were then washed with ice-cold PBS and resuspended in 800 μL of PBS. Cell suspension was aliquoted to 7xPCR tubes with 100 μL each and subjected to thermal denaturation at 46.3, 48.6, 52.2, 56.5, 60.1, 62.5, 64.0°C for 3 min. The resulting sample was snap frozen in liquid nitrogen followed by incubation at room temperature until fully thawed. This procedure was performed twice followed by brief vortexing and mixing to release soluble proteins from the cells. Samples were then transferred to 1.5 mL Eppendorf tubes and centrifuged at 20,000g for 20 min at 4°C, 90 μL of the resulting supernatant was collected into another new 1.5 mL Eppendorf tube and subjected to protein analysis by western blot (WB). NPTN (proteintech #28022-1-AP) and ALDH1A3 (abcam #ab129815) were used to detect target proteins while GelCode Blue Stain Reagent (Thermofisher scientific #24590) was used to stain for total proteins loaded in the WB analysis.

[1] = molecular target: T2, ALDH1A3 in MCF7 or SUM159-M1a-ALDH1A3 knockout cells (Homo sapiens, UniProt P47895); test: Aldefluor dose titration, cells with ectopic ALDH1A3; type: cell-based
T2 construct: expressed in transfected cells; host or cells: MCF7 wild-type; SUM159-M1a-ALDH1A3 knockout
Procedure: Next, we developed three orthogonal methods to assess MBE1.5 selectivity and potency in cellular assays, as these cellular assays provide a more physiologically relevant method to assess target engagement and specificity. […] We confirmed expression of each enzyme and then performed a dose titration of the Aldefluor assay in each cell derivative with MBE1.5. […] Therefore, we performed thermal proteome profiling (TPP) on A375 melanoma cells exposed to DMSO, 100 nM MBE1, and 1 μM MBE1. […] These two doses would be expected to saturate ALDH1A3 binding based on the biochemical affinity while the high dose may be expected to identify potential MBE1 off-targets. […] We next assessed for melting point changes in the dataset using a 1.5°C cutoff and p < 0.05; 112 proteins were identified in the comparison between 100 nM MBE1 and DMSO, including ALDH1A3. […] Finally, we validated that MBE1.5 blocked the physiological function of ALDH1A3 by testing a dose titration of MBE1.5 in the retinoid inhibition assay using MCF7-ALDH1A3 cell-based readout.
In addition, cells were suspended at a concentration of 100,000 cells per mL. […] Cells were analyzed by a BD LSRII for flow cytometry and were sorted using a FACSAria Fusion cell sorter (BD Biosciences) equipped with a 70 micron nozzle. […]

Sequence of Alpha1A (P35348 whole entry): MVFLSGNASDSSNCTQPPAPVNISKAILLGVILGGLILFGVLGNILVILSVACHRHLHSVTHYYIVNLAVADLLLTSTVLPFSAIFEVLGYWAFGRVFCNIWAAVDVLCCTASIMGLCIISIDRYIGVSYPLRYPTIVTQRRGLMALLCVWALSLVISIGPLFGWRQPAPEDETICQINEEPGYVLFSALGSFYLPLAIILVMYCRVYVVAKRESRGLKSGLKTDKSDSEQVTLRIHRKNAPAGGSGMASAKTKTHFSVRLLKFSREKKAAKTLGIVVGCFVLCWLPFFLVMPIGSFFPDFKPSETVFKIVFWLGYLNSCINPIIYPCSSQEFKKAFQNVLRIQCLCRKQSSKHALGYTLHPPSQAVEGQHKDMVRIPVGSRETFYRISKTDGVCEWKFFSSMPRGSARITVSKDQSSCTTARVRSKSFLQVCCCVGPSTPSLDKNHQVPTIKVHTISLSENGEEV
Sequence of AR (P10275 whole entry): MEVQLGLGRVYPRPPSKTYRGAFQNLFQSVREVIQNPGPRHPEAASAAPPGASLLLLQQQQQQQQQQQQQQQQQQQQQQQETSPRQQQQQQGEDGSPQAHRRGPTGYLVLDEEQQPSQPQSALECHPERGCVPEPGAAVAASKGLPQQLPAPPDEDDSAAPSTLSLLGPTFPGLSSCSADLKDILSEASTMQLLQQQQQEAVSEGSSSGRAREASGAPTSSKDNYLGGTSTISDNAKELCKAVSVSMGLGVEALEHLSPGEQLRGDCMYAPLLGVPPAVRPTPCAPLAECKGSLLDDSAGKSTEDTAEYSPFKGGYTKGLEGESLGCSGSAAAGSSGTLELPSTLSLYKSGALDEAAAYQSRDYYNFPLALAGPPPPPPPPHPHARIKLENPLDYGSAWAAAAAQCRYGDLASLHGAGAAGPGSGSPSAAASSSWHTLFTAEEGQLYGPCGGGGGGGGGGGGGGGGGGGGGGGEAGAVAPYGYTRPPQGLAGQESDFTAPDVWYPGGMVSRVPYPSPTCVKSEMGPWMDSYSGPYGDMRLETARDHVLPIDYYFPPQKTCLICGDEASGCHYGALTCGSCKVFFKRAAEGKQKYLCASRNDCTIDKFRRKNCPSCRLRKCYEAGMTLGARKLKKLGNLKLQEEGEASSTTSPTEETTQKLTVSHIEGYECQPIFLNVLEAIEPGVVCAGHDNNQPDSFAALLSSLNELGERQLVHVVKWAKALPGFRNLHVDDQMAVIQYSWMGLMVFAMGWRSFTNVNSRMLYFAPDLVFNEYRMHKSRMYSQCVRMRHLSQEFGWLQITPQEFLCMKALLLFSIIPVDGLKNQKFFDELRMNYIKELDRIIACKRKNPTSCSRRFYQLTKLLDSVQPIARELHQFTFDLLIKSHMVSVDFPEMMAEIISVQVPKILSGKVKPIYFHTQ

inhibition of ALDH1A3 in Aldefluor assay (in words) [1] | SMILES | inhibition at 10 µM (AR) | inhibition at 10 µM (Alpha1A) | inhibition at 10 µM (COX1) | inhibition at 10 µM (MAO-A) | stabilization of ALDH1A3 in CETSA (in words) (ALDH1A3)
– | CCc1cnccc1C(=O)Nc1cc2c(cc1F)NC(=O)CC2 [MBE1, 3-ethyl-N-(7-fluoro-2-oxo-3,4-dihydro-1H-quinolin-6-yl)pyridine-4-carboxamide] | -10.1% | -3.34% | -2.65% | -8.05% | increased stability and solubility at high temperatures
high potency | CCc1ccccc1C(=O)Nc1cc2c(cc1F)NC(=O)CC2 [MBE1.5, 2-ethyl-N-(7-fluoro-2-oxo-3,4-dihydro-1H-quinolin-6-yl)benzamide] | – | – | – | – | –
